{"source": "patent US20230053342A1", "about": "“IMIDAZOLIDINONE COMPOUND, PREPARATION METHOD THEREFOR AND USE THEREOF” (BETTA PHARMACEUTICALS CO., LTD, priority 2019, published 2023)", "key": {"PI3Kα": {"molecular_target": "PI3Kα (Homo sapiens, UniProt P42336)", "sequence (P42336 whole entry)": "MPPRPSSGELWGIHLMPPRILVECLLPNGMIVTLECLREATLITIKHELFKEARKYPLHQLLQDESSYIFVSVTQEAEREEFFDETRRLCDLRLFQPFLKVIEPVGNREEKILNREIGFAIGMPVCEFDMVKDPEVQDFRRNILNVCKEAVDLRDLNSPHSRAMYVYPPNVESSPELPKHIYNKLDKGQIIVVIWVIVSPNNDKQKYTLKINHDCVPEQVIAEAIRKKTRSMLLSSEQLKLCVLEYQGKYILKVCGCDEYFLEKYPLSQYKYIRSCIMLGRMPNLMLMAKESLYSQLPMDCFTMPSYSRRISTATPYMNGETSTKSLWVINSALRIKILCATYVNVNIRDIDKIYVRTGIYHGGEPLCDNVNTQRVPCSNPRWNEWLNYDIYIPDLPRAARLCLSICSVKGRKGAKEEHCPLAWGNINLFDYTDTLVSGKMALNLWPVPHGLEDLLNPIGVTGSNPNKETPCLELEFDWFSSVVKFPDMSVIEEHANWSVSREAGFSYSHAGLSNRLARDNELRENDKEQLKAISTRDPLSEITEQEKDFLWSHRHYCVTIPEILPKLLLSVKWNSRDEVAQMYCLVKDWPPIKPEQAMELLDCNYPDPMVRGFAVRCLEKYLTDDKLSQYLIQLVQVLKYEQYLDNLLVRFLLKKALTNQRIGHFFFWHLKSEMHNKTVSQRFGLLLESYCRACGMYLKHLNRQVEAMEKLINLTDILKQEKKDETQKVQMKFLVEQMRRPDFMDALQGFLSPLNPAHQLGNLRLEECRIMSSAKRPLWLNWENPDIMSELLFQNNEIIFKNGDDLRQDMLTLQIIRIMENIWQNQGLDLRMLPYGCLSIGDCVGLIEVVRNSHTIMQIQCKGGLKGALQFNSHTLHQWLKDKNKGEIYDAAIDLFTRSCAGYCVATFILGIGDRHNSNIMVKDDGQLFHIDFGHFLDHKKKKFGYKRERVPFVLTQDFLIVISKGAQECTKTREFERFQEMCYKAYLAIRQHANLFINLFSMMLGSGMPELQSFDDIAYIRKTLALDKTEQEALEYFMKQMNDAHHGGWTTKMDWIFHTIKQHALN", "sequence (P27986 whole entry partner)": "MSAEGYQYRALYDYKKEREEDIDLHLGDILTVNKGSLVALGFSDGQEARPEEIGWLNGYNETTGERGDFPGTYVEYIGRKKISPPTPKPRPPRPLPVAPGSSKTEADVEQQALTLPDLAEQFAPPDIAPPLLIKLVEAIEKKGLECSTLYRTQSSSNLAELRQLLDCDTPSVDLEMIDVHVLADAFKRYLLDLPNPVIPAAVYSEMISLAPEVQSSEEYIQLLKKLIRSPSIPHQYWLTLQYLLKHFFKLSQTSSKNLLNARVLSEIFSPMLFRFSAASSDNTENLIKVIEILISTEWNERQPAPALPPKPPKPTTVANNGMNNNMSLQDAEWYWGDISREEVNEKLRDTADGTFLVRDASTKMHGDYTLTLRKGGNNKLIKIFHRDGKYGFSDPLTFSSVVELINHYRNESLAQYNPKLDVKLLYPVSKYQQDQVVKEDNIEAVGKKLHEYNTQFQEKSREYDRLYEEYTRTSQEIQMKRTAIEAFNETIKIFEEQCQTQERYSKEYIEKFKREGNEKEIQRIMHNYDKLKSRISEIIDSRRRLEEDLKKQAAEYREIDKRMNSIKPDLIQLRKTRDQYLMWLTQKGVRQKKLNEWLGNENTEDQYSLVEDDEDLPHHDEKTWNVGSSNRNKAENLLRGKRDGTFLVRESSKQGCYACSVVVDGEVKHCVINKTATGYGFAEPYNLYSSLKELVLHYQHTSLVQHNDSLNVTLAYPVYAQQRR", "assay": "Kinase experiment (ADP-Glo, luminescence), PI3Kα", "format": "biochemical", "details": "final concentration of ATP 10 μM; read-out: IC50 of compound to PI3K (nM) α", "experimental": "(§1) PI3Kα, PI3Kβ, PI3Kγ kinases undergo enzymatic reactions with their substrates ATP and PIP2:3PS, the amount of the product detected by ADP-Glo agent and luminescence method were used to reflect the enzymatic activities of PI3Kα, PI3Kβ, PI3Kγ (the final concentration of ATP is 10 μM). The above methods were used to test the inhibitory activity of certain compound of the present invention on PI3Kα, PI3Kβ and PI3Kγ kinase.\n(§2) Agent: Basic kinase buffer (pH 7.5); PI3Kα, PI3Kβ, PI3Kγ kinase solutions; PIP2:3PS and ATP solutions; ADP-Glo kit (containing 10 mM MgCl2).\n(§3) Wherein, the buffer composition: 50 mM Hepes (pH 7.2-7.5), 3 mM MgCl2, 1 mM EGTA, 0.03% CHAPS, 100 mM NaCl, 2 mM DTT; • Compound preparation: The tested compound was diluted to a specific concentration with 100% DMSO. • Process: 1) PI3Kα, PI3Kβ, or PI3Kγ protein solution were dispensed to a 384-well assay plate (6008280, PerkinElmer), and centrifuged at 1000 rpm for 1 minute. • 2) Tested compound, negative control DMSO or positive control BYL719 was dispensed to the above-mentioned 384-well assay plate with the kinase, centrifuged at 1000 rpm for 1 min, and incubated at 25° C. for 15 mins. • 3) PIP2:3PS&ATP solution was added to the above-mentioned 384-well assay plate, centrifuged at 1000 rpm for 1 min, incubated at 25° C. for 60 mins. • 4) 5 μL of ADP-Glo agent (10 mM MgCl2 contained) was transferred to the 384-well assay plate, centrifuged at 1000 rpm for 1 min, incubated at 25° C. for 40 mins. • 5) 10 μL of Detection agent was transferred to the 384-well assay plate, centrifuged at 1000 rpm for 1 min, incubated at 25° C. for 40 mins. • 6) RLU (Relative luminescence unit) value was measured by Envision multifunctional plate reader. The RLU value was used to characterize the degree of reaction between the enzyme and the substrate, and calculate the IC50 value. • 7) Data analysis:\n(§4) Compound inhibition rate(% inh)=(negative control RLU-tested compound RLU)/(negative control RLU-positive control RLU)*100%\n(§5) The IC50 (half inhibitory concentration) of the compound was obtained using the following nonlinear fitting formula:\n(§6) Y=minimum inhibition rate+(max inhibition rate-minimum inhibition rate)/(1+10^((Log IC50−X)*slope)); wherein, X is the log value of the concentration of the tested compound, Y is the inhibition rate of tested compound(% inh)."}, "PI3Kβ": {"molecular_target": "PI3Kβ (Homo sapiens, UniProt P42338)", "sequence (P42338 whole entry)": "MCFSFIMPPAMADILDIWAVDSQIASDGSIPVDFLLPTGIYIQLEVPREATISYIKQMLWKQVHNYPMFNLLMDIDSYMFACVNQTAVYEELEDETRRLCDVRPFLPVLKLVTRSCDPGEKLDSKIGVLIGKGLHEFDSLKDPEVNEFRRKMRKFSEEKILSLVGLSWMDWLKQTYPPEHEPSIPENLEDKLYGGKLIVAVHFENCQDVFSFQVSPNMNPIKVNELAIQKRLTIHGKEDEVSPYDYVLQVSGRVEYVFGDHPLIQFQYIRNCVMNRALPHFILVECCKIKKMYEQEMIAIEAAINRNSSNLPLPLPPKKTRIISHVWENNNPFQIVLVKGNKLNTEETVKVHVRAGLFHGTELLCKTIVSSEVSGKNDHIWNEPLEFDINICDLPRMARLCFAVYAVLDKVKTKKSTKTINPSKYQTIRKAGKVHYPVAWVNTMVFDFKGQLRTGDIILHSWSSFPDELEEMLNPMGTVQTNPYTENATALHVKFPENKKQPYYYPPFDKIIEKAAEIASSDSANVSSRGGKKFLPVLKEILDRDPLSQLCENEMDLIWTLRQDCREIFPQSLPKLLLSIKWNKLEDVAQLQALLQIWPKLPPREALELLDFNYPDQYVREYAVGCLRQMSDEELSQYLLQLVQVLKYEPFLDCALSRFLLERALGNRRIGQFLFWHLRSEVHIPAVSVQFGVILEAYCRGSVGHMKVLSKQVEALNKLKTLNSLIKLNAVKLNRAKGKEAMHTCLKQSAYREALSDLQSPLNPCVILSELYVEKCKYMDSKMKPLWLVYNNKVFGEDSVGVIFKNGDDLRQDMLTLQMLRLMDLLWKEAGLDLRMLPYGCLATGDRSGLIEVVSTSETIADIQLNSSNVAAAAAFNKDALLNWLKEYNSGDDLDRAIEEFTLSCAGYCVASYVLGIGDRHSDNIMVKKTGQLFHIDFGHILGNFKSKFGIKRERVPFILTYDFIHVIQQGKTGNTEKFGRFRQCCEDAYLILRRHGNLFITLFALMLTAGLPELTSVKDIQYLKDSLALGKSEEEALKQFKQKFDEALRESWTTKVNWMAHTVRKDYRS", "sequence (P27986 whole entry partner)": "as the sequence (P27986 whole entry partner) above", "assay": "Kinase experiment (ADP-Glo, luminescence), PI3Kβ", "format": "biochemical", "details": "final concentration of ATP 10 μM; read-out: IC50 of compound to PI3K (nM) β", "experimental": "as §1, §2, §3, §4, §5, §6"}, "PI3Kγ": {"molecular_target": "PI3Kγ (Homo sapiens, UniProt P48736)", "sequence (P48736 whole entry)": "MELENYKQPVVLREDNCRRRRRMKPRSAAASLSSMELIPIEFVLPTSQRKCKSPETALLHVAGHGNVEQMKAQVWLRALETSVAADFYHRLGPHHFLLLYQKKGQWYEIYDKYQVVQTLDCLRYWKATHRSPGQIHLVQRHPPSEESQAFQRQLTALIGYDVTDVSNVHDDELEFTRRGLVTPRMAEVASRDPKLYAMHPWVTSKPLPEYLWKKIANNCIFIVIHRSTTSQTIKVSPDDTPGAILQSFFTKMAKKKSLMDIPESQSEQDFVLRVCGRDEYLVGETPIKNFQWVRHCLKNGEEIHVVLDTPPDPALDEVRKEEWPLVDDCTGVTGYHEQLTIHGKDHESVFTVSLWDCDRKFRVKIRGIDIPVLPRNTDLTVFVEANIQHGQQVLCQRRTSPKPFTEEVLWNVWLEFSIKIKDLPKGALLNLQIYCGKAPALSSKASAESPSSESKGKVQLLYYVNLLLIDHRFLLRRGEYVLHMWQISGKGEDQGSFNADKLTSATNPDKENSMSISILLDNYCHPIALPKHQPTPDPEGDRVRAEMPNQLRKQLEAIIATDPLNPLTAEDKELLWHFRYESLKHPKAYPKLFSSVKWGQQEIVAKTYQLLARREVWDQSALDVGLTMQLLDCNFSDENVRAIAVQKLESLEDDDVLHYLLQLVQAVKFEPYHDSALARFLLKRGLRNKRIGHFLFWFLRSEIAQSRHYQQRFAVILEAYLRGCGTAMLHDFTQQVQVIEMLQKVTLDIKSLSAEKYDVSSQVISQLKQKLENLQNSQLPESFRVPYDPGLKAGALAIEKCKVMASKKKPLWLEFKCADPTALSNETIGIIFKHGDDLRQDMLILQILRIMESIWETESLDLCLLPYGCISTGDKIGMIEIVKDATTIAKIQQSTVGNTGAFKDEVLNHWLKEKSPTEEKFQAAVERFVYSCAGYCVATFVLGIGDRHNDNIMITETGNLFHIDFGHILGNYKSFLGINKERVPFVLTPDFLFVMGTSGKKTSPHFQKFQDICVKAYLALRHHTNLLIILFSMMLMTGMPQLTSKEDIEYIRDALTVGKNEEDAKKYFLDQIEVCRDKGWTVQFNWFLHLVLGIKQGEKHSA", "assay": "Kinase experiment (ADP-Glo, luminescence), PI3Kγ", "format": "biochemical", "details": "final concentration of ATP 10 μM; read-out: IC50 of compound to PI3K (nM) γ", "experimental": "as §1, §2, §3, §4, §5, §6"}, "human tumor cells MCF-7": {"test_system": "human tumor cells MCF-7", "assay": "Cell proliferation assay (CellTiter Glo), MCF-7", "format": "cell-based", "details": "MCF7, MCF-7 cells incubated for 120 h, read-out: IC50(μM) of compound on MCF cell", "experimental": "(§7) Method: The anti-proliferative effects on human tumor cells MCF-7 and HGC27 of certain compounds of the present invention were evaluated by CellTiter Glo assay.\n(§8) Detection method: MCF-7 cells were suspended in DMEM culture medium, the cell concentration of which was adjusted to 25000 cells/mL; HGC27 cells were suspended in RPMI-1640 culture medium, the cell concentration of which was adjusted to 5000 cells/mL. 100 μL of cell suspension was dispensed to a 96-well assay plate and placed in a CO2 incubator overnight. The tested compounds were dissolved in DMSO, and 3-fold derail dilution was performed to obtain 10-point concentrations. the 10-point concentrations of the tested compounds or or negative control was transferred to the well containing 100 μL of culture medium respectively, incubated at 37° C., 5% CO2, the HGC27 cells were incubated for 96 h, MCF-7 cells were incubated for 120 h. Then 100 μL of CellTiter-Glo agent was added to the above-mentioned 96-well assay plate, incubated at room temperature for 10 minutes to allow stable luminescence signal. VICTOR™ X5 instrument was used to record RLU (relative luminescence unit), and then calculate the IC50 values were calculated.\n(§9) Compound inhibition rate(% inh)=100% −(tested compound RLU-blank control RLU)/(negative control RLU-blank control RLU)*100%\n(§10) Blank control: blank culture medium, with no compound or cell;\nas §5\n(§11) Y=minimum inhibition rate+(max inhibition rate-minimum inhibition rate)/(1+10^((Log IC50−X)*slope)); wherein, X: the log value of the concentration of the tested compound; Y: the inhibition rate of the tested compound(% inh)."}, "human tumor cells HGC27": {"test_system": "human tumor cells HGC27", "assay": "Cell proliferation assay (CellTiter Glo), HGC27", "format": "cell-based", "details": "HGC-27, HGC27 cells incubated for 96 h, read-out: IC50(μM) of ompound on HGC-27cell", "experimental": "as §7, §8, §9, §10, §5, §11"}, "[1]": {"assay": "Pharmacokinetic test in male SD rats", "format": "in vivo", "details": "rat, plasma", "experimental": "Method: 42 male SD rats, weight: 150-300 g. Divided into 7 groups randomly, with 6 rats in each group. Among the 6 rats in each group, three of them were administrated a single intravenous injection of […] of the example compound, the other three were given intragastric administration of […] of the example compound, blood was collected from the orbital venous plexus at designated time points, plasma was separated, and stored in a −80° C. refrigerator for later use.\nThe protein of the resultant plasma was precipitated by acetonitrile, the supernatant was extracted, and mixed with water at the ratio of 1:1, took 10 μL of which for LC-MS/MS detection, and calculated the average was calculated."}}}
{"molecule": "CC(C)[C@H]1C(=O)N(C2CC2)C(=O)N1c1cn2c(n1)-c1ccc(N3CCC[C@H]3C(N)=O)cc1OCC2", "note": "[Example 33, (2S)-1-(2-((5S)-3-cyclopropyl-5-isopropyl-2,4-dioxoimidazolidin-1-yl)-5,6-dihydrobenzo[f]imidazo[1,2-d] [1,4]oxazepin-9-yl)pyrrolidine-2-carboxamide]", "values": [{"measurement": "IC50", "setting": "PI3Kα", "value": "< 5", "unit": "nM"}, {"measurement": "IC50", "setting": "PI3Kβ", "value": "> 600", "unit": "nM"}, {"measurement": "IC50", "setting": "PI3Kγ", "value": "> 600", "unit": "nM"}, {"measurement": "IC50", "setting": "human tumor cells MCF-7", "value": 0.047, "unit": "µM"}, {"measurement": "IC50", "setting": "human tumor cells HGC27", "value": 0.267, "unit": "µM"}, {"measurement": "clearance", "setting": "[1]; intravenous injection, 2 mg/kg", "value": 11.1, "unit": "mL/min/kg"}, {"measurement": "AUC", "setting": "[1]; po, gavage, 10 mg/kg", "value": 19800, "unit": "ng·h/mL"}, {"measurement": "Cmax", "setting": "[1]; po, gavage, 10 mg/kg", "value": 1600, "unit": "ng/mL"}]}
